Results reported in patent US6358885B1, “Substituted phenylheterocyclic herbicides” (Mississippi State University, priority 1992, dated 2002).

What was measured:
Test in all cases: Test B preemergence/postemergence greenhouse plant response rating 0 to 10
[1] = tested on: rape; assay type: in vivo, Brassica napus; settings: for Plant response rating, Rape: 0 to 10 scale
Outline: (§1)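 Test chemicals, dissolved in a non-phytotoxic solvent, were applied to soil at planting and, at the same time, over foliage of seedlings at the one to four leaf stage.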

[2] = tested on: barnyardgrass; assay type: in vivo, Echinochloa crus-galli; settings: for Plant response rating, Barnyardgrass: 0 to 10 scale
Outline: as §1

[3] = tested on: soybean; assay type: in vivo, Glycine max; settings: for Plant response rating, Soybean: 0 to 10 scale
Outline: as §1

[4] = tested on: wild oat; assay type: in vivo, Avena fatua; settings: for Plant response rating, Wild oat: 0 to 10 scale
Outline: as §1

[5] = tested on: chickweed; assay type: in vivo, Stellaria media; settings: for Plant response rating, Chickweed: 0 to 10 scale
Outline: as §1

[6] = tested on: blackgrass; assay type: in vivo, Alopecurus myosuroides; settings: for Plant response rating, Blackgrass: 0 to 10 scale
Outline: as §1

[7] = tested on: cocklebur; assay type: in vivo, Xanthium pensylvanicum; settings: for Plant response rating, Cocklebur: 0 to 10 scale
Outline: as §1

[8] = tested on: cheatgrass; assay type: in vivo, Bromus secalinus; settings: for Plant response rating, Cheatgrass: 0 to 10 scale
Outline: as §1

[9] = tested on: purple nutsedge; assay type: in vivo, Cyperus rotundus; settings: for Plant response rating, Nutsedge: 0 to 10 scale
Outline: as §1

[10] = tested on: lambsquarters; assay type: in vivo, Chenopodium album; settings: for Plant response rating, Lambsquarter: 0 to 10 scale
Outline: as §1

[11] = tested on: barley; assay type: in vivo, Hordeum vulgare; settings: for Plant response rating, Barley: 0 to 10 scale
Outline: as §1

[12] = tested on: rice; assay type: in vivo, Oryza sativa; settings: for Plant response rating, Rice: 0 to 10 scale
Outline: as §1

[13] = tested on: wheat; assay type: in vivo, Triticum aestivum; settings: for Plant response rating, Wheat: 0 to 10 scale
Outline: as §1

[14] = tested on: velvetleaf; assay type: in vivo, Abutilon theophrasti; settings: for Plant response rating, Velvetleaf: 0 to 10 scale
Outline: as §1

[15] = tested on: giant foxtail; assay type: in vivo, Setaria faberii; settings: for Plant response rating, Giant foxtail: 0 to 10 scale
Outline: as §1

[16] = tested on: sorghum; assay type: in vivo, Sorghum bicolor; settings: for Plant response rating, Sorghum: 0 to 10 scale
Outline: as §1

[17] = tested on: wild buckwheat; assay type: in vivo, Polygonum convolvulus; settings: for Plant response rating, Wild buckwheat: 0 to 10 scale
Outline: as §1

[18] = tested on: bedstraw; assay type: in vivo, Galium aparine; settings: for Plant response rating, Bedstraw: 0 to 10 scale
Outline: as §1

[19] = tested on: crabgrass; assay type: in vivo, Digitaria spp.; settings: for Plant response rating, Crabgrass: 0 to 10 scale
Outline: as §1

[20] = tested on: cotton; assay type: in vivo, Gossypium hirsutum; settings: for Plant response rating, Cotton: 0 to 10 scale
Outline: as §1

[21] = tested on: morningglory; assay type: in vivo, Ipomoea hederacea; settings: for Plant response rating, Morningglory: 0 to 10 scale
Outline: as §1

[22] = tested on: sugar beet; assay type: in vivo, Beta vulgaris; settings: for Plant response rating, Sugar beet: 0 to 10 scale
Outline: as §1

[23] = tested on: corn; assay type: in vivo, Zea mays; settings: for Plant response rating, Corn: 0 to 10 scale
Outline: as §1

SMILES: COCCOc1cc(-c2nn3c(c2Cl)CCCC3)c(Cl)cc1Cl [Compound 72]
- Plant response rating, Rape ([1]; POSTEMERGENCE, Rate 50 g/ha): 9
- Plant response rating, Rape ([1]; PREEMERGENCE, Rate 50 g/ha): 0
- Plant response rating (0 to 10 scale), Rape ([1]; PREEMERGENCE, Rate 200 g/ha): 6
- Plant response rating, Rape ([1]; Rate 200 g/ha, POSTEMERGENCE): 9
- Plant response rating, Barnyardgrass ([2]; POSTEMERGENCE, Rate 50 g/ha): 5
- Plant response rating, Barnyardgrass ([2]; PREEMERGENCE, Rate 50 g/ha): 3
- Plant response rating (0 to 10 scale), Barnyardgrass ([2]; PREEMERGENCE, Rate 200 g/ha): 3
- Plant response rating, Barnyardgrass ([2]; Rate 200 g/ha, POSTEMERGENCE): 7
- Plant response rating, Soybean ([3]; POSTEMERGENCE, Rate 50 g/ha): 6
- Plant response rating, Soybean ([3]; PREEMERGENCE, Rate 50 g/ha): 0
- Plant response rating (0 to 10 scale), Soybean ([3]; PREEMERGENCE, Rate 200 g/ha): 0
- Plant response rating, Soybean ([3]; Rate 200 g/ha, POSTEMERGENCE): 7
- Plant response rating, Wild oat ([4]; POSTEMERGENCE, Rate 50 g/ha): 3
- Plant response rating, Wild oat ([4]; PREEMERGENCE, Rate 50 g/ha): 0
- Plant response rating (0 to 10 scale), Wild oat ([4]; PREEMERGENCE, Rate 200 g/ha): 3
- Plant response rating, Wild oat ([4]; Rate 200 g/ha, POSTEMERGENCE): 4
- Plant response rating, Chickweed ([5]; POSTEMERGENCE, Rate 50 g/ha): 2
- Plant response rating, Chickweed ([5]; PREEMERGENCE, Rate 50 g/ha): 0
- Plant response rating (0 to 10 scale), Chickweed ([5]; PREEMERGENCE, Rate 200 g/ha): 9
- Plant response rating, Chickweed ([5]; Rate 200 g/ha, POSTEMERGENCE): 3
- Plant response rating, Blackgrass ([6]; POSTEMERGENCE, Rate 50 g/ha): 5
- Plant response rating, Blackgrass ([6]; PREEMERGENCE, Rate 50 g/ha): 0
- Plant response rating (0 to 10 scale), Blackgrass ([6]; PREEMERGENCE, Rate 200 g/ha): 4
- Plant response rating, Blackgrass ([6]; Rate 200 g/ha, POSTEMERGENCE): 7
- Plant response rating, Cocklebur ([7]; POSTEMERGENCE, Rate 50 g/ha): 8
- Plant response rating, Cocklebur ([7]; PREEMERGENCE, Rate 50 g/ha): 0
- Plant response rating (0 to 10 scale), Cocklebur ([7]; PREEMERGENCE, Rate 200 g/ha): 0
- Plant response rating, Cocklebur ([7]; Rate 200 g/ha, POSTEMERGENCE): 10
- Plant response rating, Cheatgrass ([8]; POSTEMERGENCE, Rate 50 g/ha): 5
- Plant response rating, Cheatgrass ([8]; PREEMERGENCE, Rate 50 g/ha): 0
- Plant response rating (0 to 10 scale), Cheatgrass ([8]; PREEMERGENCE, Rate 200 g/ha): 3
- Plant response rating, Cheatgrass ([8]; Rate 200 g/ha, POSTEMERGENCE): 6
- Plant response rating, Nutsedge ([9]; POSTEMERGENCE, Rate 50 g/ha): 2
- Plant response rating, Nutsedge ([9]; PREEMERGENCE, Rate 50 g/ha): 0
- Plant response rating (0 to 10 scale), Nutsedge ([9]; PREEMERGENCE, Rate 200 g/ha): 4
- Plant response rating, Nutsedge ([9]; Rate 200 g/ha, POSTEMERGENCE): 2
- Plant response rating, Lambsquarter ([10]; POSTEMERGENCE, Rate 50 g/ha): 10
- Plant response rating, Lambsquarter ([10]; PREEMERGENCE, Rate 50 g/ha): 9
- Plant response rating (0 to 10 scale), Lambsquarter ([10]; PREEMERGENCE, Rate 200 g/ha): 10
- Plant response rating, Lambsquarter ([10]; Rate 200 g/ha, POSTEMERGENCE): 10
- Plant response rating, Barley ([11]; POSTEMERGENCE, Rate 50 g/ha): 4
- Plant response rating, Barley ([11]; PREEMERGENCE, Rate 50 g/ha): 0
- Plant response rating (0 to 10 scale), Barley ([11]; PREEMERGENCE, Rate 200 g/ha): 0
- Plant response rating, Barley ([11]; Rate 200 g/ha, POSTEMERGENCE): 5
- Plant response rating, Rice ([12]; POSTEMERGENCE, Rate 50 g/ha): 4
- Plant response rating, Rice ([12]; PREEMERGENCE, Rate 50 g/ha): 0
- Plant response rating (0 to 10 scale), Rice ([12]; PREEMERGENCE, Rate 200 g/ha): 0
- Plant response rating, Rice ([12]; Rate 200 g/ha, POSTEMERGENCE): 6
- Plant response rating, Wheat ([13]; POSTEMERGENCE, Rate 50 g/ha): 5
- Plant response rating, Wheat ([13]; PREEMERGENCE, Rate 50 g/ha): 0
- Plant response rating (0 to 10 scale), Wheat ([13]; PREEMERGENCE, Rate 200 g/ha): 3
- Plant response rating, Wheat ([13]; Rate 200 g/ha, POSTEMERGENCE): 5
- Plant response rating, Velvetleaf ([14]; POSTEMERGENCE, Rate 50 g/ha): 9
- Plant response rating, Velvetleaf ([14]; PREEMERGENCE, Rate 50 g/ha): 0
- Plant response rating (0 to 10 scale), Velvetleaf ([14]; PREEMERGENCE, Rate 200 g/ha): 10
- Plant response rating, Velvetleaf ([14]; Rate 200 g/ha, POSTEMERGENCE): 10
- Plant response rating, Giant foxtail ([15]; POSTEMERGENCE, Rate 50 g/ha): 4
- Plant response rating, Giant foxtail ([15]; PREEMERGENCE, Rate 50 g/ha): 3
- Plant response rating (0 to 10 scale), Giant foxtail ([15]; PREEMERGENCE, Rate 200 g/ha): 7
- Plant response rating, Giant foxtail ([15]; Rate 200 g/ha, POSTEMERGENCE): 5
- Plant response rating, Sorghum ([16]; POSTEMERGENCE, Rate 50 g/ha): 5
- Plant response rating, Sorghum ([16]; PREEMERGENCE, Rate 50 g/ha): 0
- Plant response rating (0 to 10 scale), Sorghum ([16]; PREEMERGENCE, Rate 200 g/ha): 0
- Plant response rating, Sorghum ([16]; Rate 200 g/ha, POSTEMERGENCE): 6
- Plant response rating, Wild buckwheat ([17]; POSTEMERGENCE, Rate 50 g/ha): 10
- Plant response rating, Wild buckwheat ([17]; PREEMERGENCE, Rate 50 g/ha): 0
- Plant response rating (0 to 10 scale), Wild buckwheat ([17]; PREEMERGENCE, Rate 200 g/ha): 2
- Plant response rating, Wild buckwheat ([17]; Rate 200 g/ha, POSTEMERGENCE): 10
- Plant response rating, Bedstraw ([18]; POSTEMERGENCE, Rate 50 g/ha): 7
- Plant response rating, Bedstraw ([18]; PREEMERGENCE, Rate 50 g/ha): 0
- Plant response rating (0 to 10 scale), Bedstraw ([18]; PREEMERGENCE, Rate 200 g/ha): 8
- Plant response rating, Bedstraw ([18]; Rate 200 g/ha, POSTEMERGENCE): 9
- Plant response rating, Crabgrass ([19]; POSTEMERGENCE, Rate 50 g/ha): 2
- Plant response rating, Crabgrass ([19]; PREEMERGENCE, Rate 50 g/ha): 0
- Plant response rating (0 to 10 scale), Crabgrass ([19]; PREEMERGENCE, Rate 200 g/ha): 9
- Plant response rating, Crabgrass ([19]; Rate 200 g/ha, POSTEMERGENCE): 2
- Plant response rating, Cotton ([20]; POSTEMERGENCE, Rate 50 g/ha): 10
- Plant response rating, Cotton ([20]; PREEMERGENCE, Rate 50 g/ha): 0
- Plant response rating (0 to 10 scale), Cotton ([20]; PREEMERGENCE, Rate 200 g/ha): 0
- Plant response rating, Cotton ([20]; Rate 200 g/ha, POSTEMERGENCE): 10
- Plant response rating, Morningglory ([21]; POSTEMERGENCE, Rate 50 g/ha): 7
- Plant response rating, Morningglory ([21]; PREEMERGENCE, Rate 50 g/ha): 0
- Plant response rating (0 to 10 scale), Morningglory ([21]; PREEMERGENCE, Rate 200 g/ha): 0
- Plant response rating, Morningglory ([21]; Rate 200 g/ha, POSTEMERGENCE): 9
- Plant response rating, Sugar beet ([22]; POSTEMERGENCE, Rate 50 g/ha): 10
- Plant response rating, Sugar beet ([22]; PREEMERGENCE, Rate 50 g/ha): 0
- Plant response rating (0 to 10 scale), Sugar beet ([22]; PREEMERGENCE, Rate 200 g/ha): 9
- Plant response rating, Sugar beet ([22]; Rate 200 g/ha, POSTEMERGENCE): 10
- Plant response rating, Corn ([23]; POSTEMERGENCE, Rate 50 g/ha): 3
- Plant response rating, Corn ([23]; PREEMERGENCE, Rate 50 g/ha): 0
- Plant response rating (0 to 10 scale), Corn ([23]; PREEMERGENCE, Rate 200 g/ha): 2
- Plant response rating, Corn ([23]; Rate 200 g/ha, POSTEMERGENCE): 5
